Experimental findings from patent publication US10196436B2, “Inhibitors of the fibroblast growth factor receptor” (BLUEPRINT MEDICINES CORPORATION, priority 2012, dated 2019) are described below.

“Also recorded” adds a separate entry of the source.

Data set [1] relates to MDA-MB-453 cells, which harbor an activating FGFR4 mutation. The data set can be described thus: Cellular potency: phosphorylation of Erk in MDA-MB-453 cells (immunoblot). To be noted: Homo sapiens, MDA-MB-453, 1 h, read-out: Potency (pErk IC50). A general note: In western blotting, separated proteins are transferred to a membrane and probed.
Description: Dose response in MDA-MB-453 cells, which harbor an activating FGFR4 mutation, was measured as follows. Briefly, MDA-MB-453 cells were seeded at 2.5×10^6 cells/6 well, and starved overnight. Compounds were added at varying concentrations (3000, 1000, 300, 100, and 30 nM) for 1 hour. Samples were collected and lysed for immunoblot analysis. The phosphorylation of Erk was measured and the average pErk value of three replicates was plotted with three parameter dose-response (inhibition) curve fit using Prism GraphPad software, which was used to determine the IC50 values.
Data set [2] is classed as in vivo. To be noted: Hep3B-bearing nude mice, entire study period, current dosages and dosing schedule. The method, then:
(§1) Tumor volume and body weight measurements: Tumor size was measured twice per week in two dimensions using a caliper, and the volume was expressed in mm^3 using the formula: V=0.5 a×b^2 where a and b were the long and short diameters of the tumor, respectively. Body weight was measured at least twice weekly.
Body weight change (%) of Hep3B-bearing nude mice: FIG. 8 is a line graph depicting the body weight change (%) during the entire study period.

Another data set relates to Hep3B xenograft tumors. In words: Hep3B liver cancer cell subcutaneous xenograft model, tumor growth inhibition. In kind it is in vivo, Mus Musculus. To be noted: Day 4 to Day 19, nude mice. Here is the method: […] female nude mice (Mus Musculus) age 6 to 8 weeks were used. Tumor cell culture and inoculation: Hep3B cells were cultured with EMEM medium (Invitrogen, USA) supplemented with 10% FBS (Gibco, Australia). The cells were harvested in 90% confluence, and the viability was no less than 90%. Mice were implanted subcutaneously (s.c.) with 200 μL of 10×10^6 Hep3B cells in 50% Matrigel in the right flank at the beginning of the study.
Animal grouping and dosing schedule: Ten days after cell implantation, when tumors reached an average volume of 199 mm^3, 45 mice were selected based on tumor volume and randomly assigned to 5 treatment groups (n=9). The day of randomization was denoted as Do and the treatment was started from then on.
as §1

In a further data set the test system is Hep3B cells. The data set can be described thus: Induction of apoptosis, Caspase-Glo3/7 assay in Hep3B cells. The conditions noted are these: 6 hours. The data set is classed as cell-based. Here is the method: Hep3B cells were seeded at 20 k/well in 96-well white plates in 200 ul of DMEM/5% FBS overnight. The next day compound was added at a final DMSO concentration of 0.1% and incubated for 6 hours. Caspase activity was measured according to manufacture instruction (Caspase-Glo3/7 Assay (Promega)). Briefly, 100 ul of Caspase-Glo3/7 reagent was added to each well and incubated for 1 hour in the dark. Luminescence was measured using EnVision.

As a reminder, the IC50 is the concentration that inhibits the measured activity by half. `C=CC(=O)Nc1cccc(C)c1Nc1ncc2cc(-c3c(Cl)c(OC)cc(OC)c3Cl)ccc2n1` [COMPOUND 25, N-(2-((6-(2,6-dichloro-3,5-dimethoxyphenyl)quinazolin-2-yl)amino)-3-methylphenyl)acrylamide]: in data set [1], the IC50 lay within 1 to 10 nM. Further, in data set [2], the “body weight change / tolerability” value was “well tolerated”. Also, the “tumor volume vs vehicle group” value in the data set on Hep3B xenograft tumors (100 mg/kg PO BID) is reported as “Statistically significant reduction of tumor volumes; also recorded: regressed”; in the data set with Hep3B xenograft tumors (300 mg/kg PO BID), “Statistically significant reduction of tumor volumes; also recorded: almost disappeared”. Moreover, the “induction of apoptosis (caspase activity)” value in the data set with Hep3B cells is given as “potent induction of apoptosis”.
